Consider 25 compounds from patent US5004758A, “Water soluble camptothecin analogs useful for inhibiting the growth of animal tumor cells” (priority 1988, dated 1991).

The subject of one series is ip L1210 leukemia. In words: ip-implanted L1210 leukemia in mice.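 Further: each mouse received 10^6 L1210 cells intraperitoneally, with drug treatment also given by the i.p. route.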 The conditions noted are these: ip L1210 (10^6 cells); drug i.p. Days 1 and 5 at maximally tolerated dose.
A short description of series [1]: ip-implanted L1210 leukemia in mice.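 Further: each mouse received 10^6 L1210 cells intraperitoneally, with drug treatment also given by the i.p. route.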 The conditions noted are these: mouse, in vivo, ip.
Method: (§1) For in vivo studies L1210 cells were implanted i.p. (10^6 per mouse)
(§2) and drugs were administered i.p. on Days 1 and 5. Increase in lifespan
(§3) (ILS) was based on median survival time of groups of 6 mice treated at th
maximally tolerated dose of the drugs.
For the next series, the system named is L1210 leukemia cells. In words: cells. The class given is cell-based, mouse. The conditions noted are these: Mus musculus, L1210, read-out: In Vitro Activity IC50. As for the experimental part:
Cells were exposed continuously upon cloning into medium containing 0.2 percent Noble agar. After incubation at 37° C. in a CO2 incubator for 3 days, colonies were stained with viable cell specific formazan stain and, 24 hours later, were enumerated by a colony counter (Biotran II, New Brunswick Scientific Co., Edison, N.J.) adjusted to identify colonies of more than 50 cells. The concentration which reduced cloning efficiency by 50 percent IC50) was determined by interpolation.

The conditions of series [2]: reported by Wani et al., J. Med. Chem., 30, 1774 (1987); cited from earlier work.
For a further series, the system named is P388/Doxorubicin. As to the kind of experiment: ip P388/Doxorubicin multidrug resistant subline in mice. The conditions noted are these: for ILS / NCK (net tumor cell kill): P388/Doxorubicin, ip, Days 1 and 5.
Another series deals with P388/Mitoxantrone. As to the kind of experiment: ip P388/Mitoxantrone multidrug resistant subline in mice. The conditions noted are these: for ILS / NCK (net tumor cell kill): P388/Mitoxantrone, ip, Days 1 and 5.
A further series deals with ip P388 leukemia. The conditions noted are these: P388, ip, Days 1 and 5.

SMILES strings stand for the structures. Structures can show the parent of a compound that is named as a salt. Where two headings read alike, the source gives them in different places.

Method for P388/Doxorubicin: (§4) Increase in lifespan (ILS) is based on median survival time of groups of 6 mice. Net tumor cell kill (NCK) is calculated from median survival time by standard methods, since survival time is a linear function of the log tumor cell burden.
(§5) For the leukemias, these tumors are maintained in DBA/2 mice. […] The leukemias and the M5076 sarcoma are serially transplanted i.p. as ascites cell suspensions while the B16 melanoma lines and the colon carcinoma 26 are serially transplanted as s.c. solid tumors.
(§6) For therapeutic trials, tumors are aseptically removed from donor mice and prepared as suspensions for implantation ip into test animals. […] The test animals for the other tumor models are syngeneic female F1 hybrid B6D2F1 mice (C57B1/6 x DBA/2). The inoculum level varies with the type of tumor: P388 leukemia is inoculated at 10^6 cells per mouse, L1210 leukemia at 10^5 or 10^6 cells per mouse, M5076 sarcoma at 5×10^6 cells per mouse. […] After tumor inoculation, mice randomized to treatment groups comprised of 6-8 mice each. In each experiment, there are three groups of untreated control mice. Drugs are dissolved or suspended in appropriate aqueous vehicles and given by a variety of routes and schedules of administration over a range of dose levels. Animals are housed in shoebox cages and are monitored daily for mortality for 30 (L1210), 45 (P388) or 60 (B16, M5076, colon 26) days.
Method for P388/Mitoxantrone: as §4, §5, §6
Method for ip L1210 leukemia: as §1, §2, §3
maximally tolerated dose of the drugs.
Method for ip P388 leukemia: as §4
Animals were implanted ip with 10^6 cells. Increase in lifespan (ILS) is based on median survival time of groups of 6 mice relative to untreated controls. Long-term survivors were tumor-free on Day 45.
Tumors used in these studies--P388 leukemia and its doxorbicin--and mitoxanrone-resistant sublines, L1210 leukemia, B16 melanoma, B16 melanoma/F10 subline, M5076 sarcoma and colon carcinoma 26--are maintained by serial transplantation in syngeneic strains of mice. For the leukemias, these tumors are maintained in DBA/2 mice. The M5076 sarcoma, the B16 melanoma and its F10 subline are maintained in C57B1/6 mice and the colon sarcinoma 26 is maintained in BALB/c mice. The leukemias and the M5076 sarcoma are serially transplanted i.p. as ascites cell suspensions while the B16 melanoma lines and the colon carcinoma 26 are serially transplanted as s.c. solid tumors.
For therapeutic trials, tumors are aseptically removed from donor mice and prepared as suspensions for implantation ip into test animals. The test animals for the colon carcinoma 26 are female BALB/c mice (20-25 gm). The test animals for the other tumor models are syngeneic female F1 hybrid B6D2F1 mice (C57B1/6 x DBA/2). The inoculum level varies with the type of tumor: P388 leukemia is inoculated at 10^6 cells per mouse, L1210 leukemia at 10^5 or 10^6 cells per mouse, M5076 sarcoma at 5×10^6 cells per mouse. For implantation of the B16 melanoma lines and the colon carcinoma 26, s.c. tumors from donor mice are minced and homogenized in loose fitting teflon glass homogenizer to give a tumor brei. The inoculum levels are 0.5 ml of a 10 percent (w:v) brei of the B16 melanoma lines and 0.5 ml of a 5 percent (w:v) brei of colon carcinoma 26. After tumor inoculation, mice randomized to treatment groups comprised of 6-8 mice each. In each experiment, there are three groups of untreated control mice. Drugs are dissolved or suspended in appropriate aqueous vehicles and given by a variety of routes and schedules of administration over a range of dose levels. Animals are housed in shoebox cages and are monitored daily for mortality for 30 (L1210), 45 (P388) or 60 (B16, M5076, colon 26) days.

The term IC50 denotes the concentration that inhibits the measured activity by half. On to `CC[C@@]1(O)C(=O)OCc2c1cc1n(c2=O)Cc2cc3c(CNC4CC4)c(O)ccc3nc2-1` [8S], for which the “In Vivo Antitumor Activity ILS (increase in lifespan)” value in the series with ip L1210 leukemia was 131%. Besides, in series [1], the MTD came out at 25 mg/kg. Besides, the IC50 in the series with L1210 leukemia cells amounted to 0.13 µM.
The matching figures for `CC[C@@]1(O)C(=O)OCc2c1cc1n(c2=O)Cc2cc3c(CCN)c(O)ccc3nc2-1` [22S, (20S) 10-Hydroxy-9-aminoethylcamptothecin Acetate Salt]: 75%, 100 mg/kg and 0.36 µM.
Consider `CC[C@@]1(O)C(=O)OCc2c1cc1n(c2=O)Cc2cc3c(CN4CCOCC4)cccc3nc2-1` [18S, (20S) 9-Morpholinomethylcamptothecin], for which the “In Vivo Antitumor Activity ILS (increase in lifespan)” value in the series with ip L1210 leukemia is listed as 144%. The MTD in series [1] is 13 mg/kg. The IC50 with L1210 leukemia cells amounted to 0.69 µM.
The matching figures for `CC[C@@]1(O)C(=O)OCc2c1cc1n(c2=O)Cc2cc3c(CC#N)c(O)ccc3nc2-1` [17S, (20S) 10-Hydroxy-9-cyanomethylcamptothecin]: more than 200%, 12 mg/kg and 0.4 µM.
As to `CCC1(O)C(=O)OCc2c1cc1n(c2=O)Cc2cc3ccc([N+](=O)[O-])cc3nc2-1` (stereo not drawn) [11-nitro], in series [2], the “activity in an assay for antitumor activity” value (shortened to “activity in an assay”) is reported as “active”.
As to `CC[C@@]1(O)C(=O)OCc2c1cc1n(c2=O)Cc2cc3cc(CN)ccc3nc2-1` [20S, (20S) 10-Aminomethylcamptothecin Acetate salt], in the series with ip L1210 leukemia, the “In Vivo Antitumor Activity ILS (increase in lifespan)” value was 112%. The same compound had an MTD in series [1] of 92 mg/kg. Further, the IC50 with L1210 leukemia cells worked out at 0.09 µM.
The matching figures for `CC[C@@]1(O)C(=O)OCc2c1cc1n(c2=O)Cc2cc3c(C[N+](C)(C)C)c(O)ccc3nc2-1` [3S, (20 S) 9-Trimethylammoniummethyl-10-hydroxycamptothecin Methanesulfonate Salt]: more than 200%, 42 mg/kg and 0.15 µM.
The matching figures for `CC[C@@]1(O)C(=O)OCc2c1cc1n(c2=O)Cc2cc3c(CNC4CCCCC4)c(O)ccc3nc2-1` [11S]: more than 200%, 25 mg/kg and 0.056 µM.
As for `CC[C@@]1(O)C(=O)OCc2c1cc1n(c2=O)Cc2cc3cc(C#N)ccc3nc2-1` [16S, 10-Cyanocamptothecin], the “In Vivo Antitumor Activity ILS (increase in lifespan)” value in the series with ip L1210 leukemia was 100%. The same compound registered an MTD in series [1] of 3 mg/kg. In addition, in the series with L1210 leukemia cells, the IC50 was found to be 0.08 µM.
The matching figures for `CC[C@@]1(O)C(=O)OCc2c1cc1n(c2=O)Cc2cc3c(CNCCO)c(O)ccc3nc2-1` [4S, (20 S) 9-(2'-Hydroxyethylamino) methyl-10-hydroxycamptothecin Acetate Salt]: 75%, 42 mg/kg and 0.25 µM.
Turning to `CCC1(O)C(=O)OCc2c1cc1n(c2=O)Cc2cc3ccc(N)cc3nc2-1` (stereo not drawn) [11-amino], the “activity in an assay” value in series [2] is “active”.
Take `CC[C@@]1(O)C(=O)OCc2c1cc1n(c2=O)Cc2cc3c(COCCN(C)C)c(O)ccc3nc2-1` [13S, (20 S) 9-N,N-Dimethylaminoethyloxymethyl-10-hydroxycamptothecin Hydrochloride Salt]: the “In Vivo Antitumor Activity ILS (increase in lifespan)” value with ip L1210 leukemia is 188%. Also, in series [1], the MTD came out at 42 mg/kg.
For the compound `CC[C@@]1(O)C(=O)OCc2c1cc1n(c2=O)Cc2cc3c(CN(C)C)cccc3nc2-1` [15S, (20S) 9-Dimethylaminomethylcamptothecin], the “In Vivo Antitumor Activity ILS (increase in lifespan)” value in the series with ip L1210 leukemia is on record as 88%. In series [1], this compound came in with an MTD of 15 mg/kg. For the same compound, the IC50 with L1210 leukemia cells came out at 0.065 µM.
The like results for `CC[C@@]1(O)C(=O)OCc2c1cc1n(c2=O)Cc2cc3c(CNCCN(C)C)c(O)ccc3nc2-1` [12S, (20 S) 9-N,N-Dimethylaminoethylaminomethyl-10-hydroxycamptothecin Dihydrochloride Salt] were, in that order, 94%, more than 42 mg/kg and 0.049 µM.
In the case of `CC[C@@]1(O)C(=O)OCc2c1cc1n(c2=O)Cc2cc3cc(C=O)ccc3nc2-1` [19S, (20S) 10-Formylcamptothecin], the IC50 in the series on L1210 leukemia cells stood at 0.062 µM.
Take `CCC1(O)C(=O)OCc2c1cc1n(c2=O)Cc2cc3ccc(CN)cc3nc2-1` (stereo not drawn) [11-aminomethyl analog]: the “activity in an assay” value in series [2] is “inactive”.
Turning to `CC[C@@]1(O)C(=O)OCc2c1cc1n(c2=O)Cc2cc3c(CN(C)c4ccccc4)c(O)ccc3nc2-1` [9S], in the series on ip L1210 leukemia, the “In Vivo Antitumor Activity ILS (increase in lifespan)” value is given as 112%. In series [1], this compound registered an MTD of 42 mg/kg. For the same compound, the IC50 with L1210 leukemia cells amounted to 0.069 µM.
One may read the ILS as the gain in survival time of treated over control animals, in per cent. Read a high ILS as much gain in survival. On to `COc1cccc2c1C(=O)c1c(O)c3c(c(O)c1C2=O)C[C@@](O)(C(=O)CO)C[C@@H]3O[C@H]1C[C@H](N)[C@H](O)[C@H](C)O1` [Doxorubicin], for which the ILS in the series on P388/Doxorubicin (1.2 mg/kg) is 19%; in the series on P388/Doxorubicin (1.9 mg/kg), 24%; in the series with P388/Doxorubicin (3.2 mg/kg), 24%; with P388/Doxorubicin (5.4 mg/kg), 19%; in the series on P388/Doxorubicin (9 mg/kg), 14%; with P388/Mitoxantrone (1.2 mg/kg), 0%. Moreover, the ILS was 0% in the series on P388/Mitoxantrone (1.9 mg/kg); 0% with P388/Mitoxantrone (3.2 mg/kg); 4% in the series with P388/Mitoxantrone (5.4 mg/kg); 7% with P388/Mitoxantrone (9 mg/kg); 117% in the series on ip P388 leukemia (1.2 mg/kg); 167% in the series with ip P388 leukemia (1.9 mg/kg). Further, the values for the ILS with ip P388 leukemia (3.2 mg/kg), in the series with ip P388 leukemia (5.4 mg/kg) and in the series on ip P388 leukemia (9 mg/kg) were 172%, 156% and 233%, respectively. For the same compound, the “NCK (net tumor cell kill)” value with P388/Doxorubicin (1.2 mg/kg), with P388/Doxorubicin (1.9 mg/kg), in the series on P388/Doxorubicin (3.2 mg/kg), with P388/Doxorubicin (5.4 mg/kg), in the series on P388/Doxorubicin (9 mg/kg) and in the series on P388/Mitoxantrone (1.2 mg/kg) was 0 log each time. Moreover, the “NCK (net tumor cell kill)” value came out at 0 log with P388/Mitoxantrone (1.9 mg/kg); 0 log in the series on P388/Mitoxantrone (3.2 mg/kg); 0 log in the series with P388/Mitoxantrone (5.4 mg/kg); 0 log in the series with P388/Mitoxantrone (9 mg/kg); 3.0 log with ip P388 leukemia (1.2 mg/kg); 5.1 log in the series with ip P388 leukemia (1.9 mg/kg). Also, the “NCK (net tumor cell kill)” value in the series with ip P388 leukemia (3.2 mg/kg) came to 5.3 log; in the series on ip P388 leukemia (5.4 mg/kg) it was 4.6 log; with ip P388 leukemia (9 mg/kg) it was 6.5 log. For the same compound, the “sensitivity / resistance of subline” value with P388/Doxorubicin (P388/doxorubicin in mice) and in the series with P388/Mitoxantrone (P388/mitoxantrone in mice) was “expected resistance” in each case.
`CC[C@@]1(O)C(=O)OCc2c1cc1n(c2=O)Cc2cc3c(CSCCN(C)C)c(O)ccc3nc2-1` [14S, (20 S) 9-N,N-Dimethylaminoethylthiomethyl-10-hydroxycamptothecin Hydrochloride Salt]: the “In Vivo Antitumor Activity ILS (increase in lifespan)” value in the series on ip L1210 leukemia came out at 112%. The same compound registered an MTD in series [1] of 42 mg/kg. Besides, the IC50 with L1210 leukemia cells stood at 0.012 µM.
Take `CC[C@@]1(O)C(=O)OCc2c1cc1n(c2=O)Cc2cc3c(CN4CCC(N5CCCCC5)CC4)c(O)ccc3nc2-1` [7S]: in the series with ip L1210 leukemia, the “In Vivo Antitumor Activity ILS (increase in lifespan)” value is listed as 44%. This compound also showed an MTD in series [1] of more than 42 mg/kg. Further, the IC50 in the series on L1210 leukemia cells was 0.27 µM.
The like results for `CC[C@@]1(O)C(=O)OCc2c1cc1n(c2=O)Cc2cc3c(CN4CCOCC4)c(O)ccc3nc2-1` [5S] were, in that order, 83%, 100 mg/kg and 0.37 µM.
The matching figures for `CC[C@@]1(O)C(=O)OCc2c1cc1n(c2=O)Cc2cc3c(C=O)c(O)ccc3nc2-1` [2S, (20 S) 9-Formyl-10-hydroxycamptothecin]: 75%, 42 mg/kg and 0.26 µM.
The like results for `CCOCc1c(O)ccc2nc3c(cc12)Cn1c-3cc2c(c1=O)COC(=O)[C@]2(O)CC` [10S, (20 S) 9-Ethoxymethyl-10-hydroxycamptothecin] were, in that order, 131%, 25 mg/kg and 0.048 µM.
In the case of `CC[C@@]1(O)C(=O)OCc2c1cc1n(c2=O)Cc2cc3c(CN4CCN(C)CC4)c(O)ccc3nc2-1` [6S], the “In Vivo Antitumor Activity ILS (increase in lifespan)” value with ip L1210 leukemia is recorded as more than 200%. The same compound yielded an MTD in series [1] of 75 mg/kg. The IC50 in the series with L1210 leukemia cells was 0.072 µM.
As to `CCC1(O)C(=O)OCc2c1cc1n(c2=O)Cc2cc3ccc(C#N)cc3nc2-1` (stereo not drawn) [11-cyano], the “activity in an assay” value in series [2] was “active”.
